Values quoted from earlier work in patent US10350275B2, “Methods of cytotoxic gene therapy to treat tumors” (Advantagene, Inc., priority 2013, dated 2019).

Test system: tumors
Details: monotherapy; Senzer et al 2009

Anti-CTLA-4: Immune checkpoint inhibitor antibody; Ipilimumab (anti-CTLA-4) approved for metastatic melanoma
complete and partial responses, share of subjects: about 10.9%
